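Each compound was tested at five concentrations against cells in 96-well plates for 48 hours. The concentration for 50% growth inhibition is given as GI50.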 The source made the active and inactive calls. Cut-off read from the data, not from the text of the source: active = GI50 up to about 1.1 µM and inactive = higher.
Columns and labels:
Assay in all cases: inhibition of tumour cell growth, NCI panel, 48 h
Hs-578T = test system: Hs-578T
SR = test system: SR
NCI-H522 = test system: NCI-H522
OVCAR-8 = test system: OVCAR-8
SF-295 = test system: SF-295
SF-268 = test system: SF-268
MDA-MB-231 = test system: MDA-MB-231
ACHN = test system: ACHN
K562 = test system: K562
RXF 393 = test system: RXF 393
NCI-H23 = test system: NCI-H23
LOX IMVI = test system: LOX IMVI
COLO 205 = test system: COLO 205
SK-MEL-28 = test system: SK-MEL-28
KM12 = test system: KM12
OVCAR-5 = test system: OVCAR-5
M14 = test system: M14
SK-MEL-2 = test system: SK-MEL-2
HCT-116 = test system: HCT-116
T47D = test system: T47D

Measured: GI50

COC(=O)C(NC(=O)CNC(=O)CSc1nnc(COc2ccc(Cl)cc2)n1-c1ccccc1)C(C)C (stereo unspecified)
inactive: Hs-578T 22.9 µM | SR 11.1 µM | NCI-H522 3.75 µM | OVCAR-8 20.1 µM | SF-295 19.5 µM | SF-268 21.3 µM | MDA-MB-231 18.5 µM | ACHN 18 µM | K562 33.3 µM | RXF 393 18.1 µM | NCI-H23 20 µM | LOX IMVI 19.6 µM | COLO 205 19.5 µM | SK-MEL-28 16.7 µM | KM12 18.5 µM | OVCAR-5 18.2 µM | M14 18.7 µM | SK-MEL-2 20.8 µM | HCT-116 16.2 µM

CC(=O)/N=C1\NC(=O)/C(=C/c2ccc(Cl)cc2Cl)N1C
inactive: Hs-578T 23.1 µM | NCI-H522 > 100 µM | OVCAR-8 31.6 µM | SF-295 96.2 µM | SF-268 56.6 µM | MDA-MB-231 74.6 µM | ACHN > 100 µM | RXF 393 75 µM | NCI-H23 > 100 µM | LOX IMVI 17.6 µM | COLO 205 > 100 µM | KM12 > 100 µM | OVCAR-5 > 100 µM | M14 95.3 µM | SK-MEL-2 > 100 µM | HCT-116 30.8 µM

COc1ccc(-c2c3c(n(C4OC(COC(C)=O)C(OC(C)=O)C(OC(C)=O)C4OC(C)=O)c(=S)c2C#N)CCCC3)cc1 (stereo unspecified)
inactive: SR > 100 µM | NCI-H522 25.3 µM | OVCAR-8 69 µM | SF-295 > 100 µM | SF-268 34.2 µM | MDA-MB-231 55.8 µM | ACHN 55.6 µM | K562 65.6 µM | RXF 393 33.7 µM | NCI-H23 37.9 µM | LOX IMVI > 100 µM | COLO 205 69.5 µM | SK-MEL-28 61.9 µM | KM12 > 100 µM | OVCAR-5 > 100 µM | M14 > 100 µM | SK-MEL-2 16.2 µM | HCT-116 79.4 µM | T47D 34.3 µM

O=C(O)CSc1nnc(COc2ccc(Cl)cc2)n1-c1ccccc1
inactive: NCI-H522 > 100 µM | OVCAR-8 > 100 µM | SF-295 > 100 µM | SF-268 > 100 µM | MDA-MB-231 > 100 µM | ACHN > 100 µM | K562 > 100 µM | RXF 393 > 100 µM | NCI-H23 > 100 µM | LOX IMVI > 100 µM | COLO 205 > 100 µM | SK-MEL-28 > 100 µM | KM12 > 100 µM | OVCAR-5 > 100 µM | M14 > 100 µM | SK-MEL-2 > 100 µM | HCT-116 > 100 µM | T47D > 100 µM

Cc1cc2nc3c(C#N)c4c(c(Cl)n3c2cc1C)CCC4
inactive: NCI-H522 17.4 µM | OVCAR-8 20.2 µM | SF-295 > 100 µM | SF-268 23.9 µM | MDA-MB-231 15.9 µM | ACHN 24.6 µM | RXF 393 16.6 µM | NCI-H23 24.1 µM | LOX IMVI 18.1 µM | COLO 205 65.8 µM | SK-MEL-28 29.2 µM | KM12 38.5 µM | OVCAR-5 25.1 µM | HCT-116 16.1 µM | T47D 40.7 µM

Cc1[nH]n(C(=N)N)c(=O)c1CCO
inactive: Hs-578T > 100 µM | SR 17.1 µM | NCI-H522 > 100 µM | OVCAR-8 1.68 µM | SF-295 > 100 µM | SF-268 > 100 µM | MDA-MB-231 > 100 µM | ACHN > 100 µM | K562 > 100 µM | RXF 393 > 100 µM | NCI-H23 > 100 µM | LOX IMVI > 100 µM | COLO 205 > 100 µM | SK-MEL-28 > 100 µM | OVCAR-5 > 100 µM | M14 > 100 µM | SK-MEL-2 > 100 µM | HCT-116 > 100 µM

COC(=O)[C@]1(c2cc3ccccc3n2S(=O)(=O)c2ccccc2)CC2CCC1NC2 (stereo partly specified)
inactive: NCI-H522 14.3 µM | OVCAR-8 14.9 µM | SF-295 16.9 µM | SF-268 16.8 µM | MDA-MB-231 14.1 µM | ACHN 21.7 µM | K562 10.4 µM | RXF 393 12.2 µM | NCI-H23 15.2 µM | LOX IMVI 15.6 µM | COLO 205 14.4 µM | SK-MEL-28 16.8 µM | KM12 15.1 µM | OVCAR-5 16.1 µM | M14 14.2 µM | SK-MEL-2 16.7 µM | HCT-116 13.7 µM | T47D 12.2 µM
active: SR < 0.01 µM

O=C(Nc1cc(C(F)(F)F)ccc1Cl)C(=O)C(C(=O)c1ccc2ccccc2c1)C1OC(=O)c2ccccc21 (stereo unspecified)
inactive: SR 2.62 µM | NCI-H522 4.29 µM | OVCAR-8 5.09 µM | SF-295 4.81 µM | SF-268 4.13 µM | ACHN 17 µM | K562 4.66 µM | RXF 393 1.2 µM | NCI-H23 5.26 µM | LOX IMVI 6.32 µM | COLO 205 10.4 µM | SK-MEL-28 5.13 µM | KM12 13.3 µM | OVCAR-5 8.95 µM | M14 12.2 µM | SK-MEL-2 12.6 µM | HCT-116 4.8 µM
